EC50 data for 14 compounds are collected here from US8697641B2, “4-amino-4-oxobutanoyl peptide cyclic analogues, inhibitors of viral replication” (Achillion Pharmaceuticals, Inc., priority 2008, dated 2014).

The subject of the experiment is Hepatitis C replicon. Kind of experiment: HCV replicon assay (NPT ELISA readout) in Huh-7 replicon-containing cells. The class given is cell-based, Hepatitis C virus. As to conditions: Hepatitis C virus, 72 h; HCV replicon in Huh-7 cells, three days incubation. A digest of the protocol: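 Replication is measured as neomycin phosphotransferase level by captured ELISA after three days of compound exposure (typically 10 to 0.03 μM, 6 concentrations) at 37 °C. Cells are Huh-7 harbouring an HCV replicon with neo gene and NS3-NS5B; interferon alpha is the positive control.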

In turn, `O=C1N[C@]2(C(=O)NS(=O)(=O)C3CC3)C[C@H]2/C=C\CCCCC[C@H](CC(=O)N2CCCCC2)C(=O)N2C[C@H](OC(=O)N3CCc4ccccc4C3)C[C@@H]12` [Compound 112, (2R,6R,14aR, 16aS,Z)-14a-(cyclopropylsulfonyl-carbamoyl)-5,16-dioxo-6-(2-oxo-2-(piperidin-1-yl)ethyl)-1,2,3,5,6,7,8,9,10,11, 13a,14,14a,15,16,16a-hexadecahydrocyclopropa [e]pyrrolo[1,2-a][1,4] diazacyclopentadecin-2-yl 3,4-dihydroisoquinoline-2(1H)-carboxylate] yielded an EC50 of less than 1000 nM.

`COc1ccc2c(O[C@@H]3C[C@H]4C(=O)N[C@]5(C(=O)NS(=O)(=O)C6CC6)C[C@H]5/C=C\CCCCC[C@H](CC(=O)N5CC[C@H](C(C)(C)N)C5)C(=O)N4C3)cc(-c3ccccc3)nc2c1` [Compound 111, (2R,6R,14aR,16aS,Z)-6-(2-((S)-3-(2-aminopropan-2-yl)pyrrolidin-1-yl)-2-oxoethyl)-N-(cyclopropylsulfonyl)-2-(7-methoxy-2-phenylquinolin-4-yloxy)-5,16-dioxo-1,2,3,5,6,7,8,9,10,11, 13a,14,14a,15,16,16a-hexadecahydrocyclopropa [e]pyrrolo[1,2-a][1,4] diazacyclopentadecine-14a-carboxamide] registered an EC50 of less than 1000 nM.

Compound `O=C1N[C@]2(C(=O)NS(=O)(=O)C3CC3)C[C@H]2/C=C\CCCCC[C@H](CC(=O)N2CCC(F)(F)C2)C(=O)N2C[C@H](OC(=O)N3CCc4ccccc4C3)C[C@@H]12` [Compound 114, (2R,6R,14aR, 16aS,Z)-14a-(cyclopropylsulfonyl-carbamoyl)-6-(2-(3,3-difluoropyrrolidin-1-yl)-2-oxoethyl)-5,16-dioxo-1,2,3,5,6,7,8,9,10,11, 13a,14,14a,15,16,16a-hexadecahydrocyclopropa [e]pyrrolo[1,2-a][1,4] diazacyclopentadecin-2-yl 3,4-dihydroisoquinoline-2(1H)-carboxylate] showed a 50% effective concentration (EC50) of less than 1000 nM.

The compound `COc1ccc2c(O[C@@H]3C[C@H]4C(=O)N[C@]5(C(=O)NS(=O)(=O)C6CC6)C[C@H]5/C=C\CCCCC[C@H](CC(=O)N5C(C)CCCC5C)C(=O)N4C3)cc(-c3ccccc3)nc2c1` (stereo partly drawn) [Compound 69, (2R,6R,13aS, 14aR,16aS,Z)-N-(cyclopropylsulfonyl)-6-(2-(2,6-dimethylpiperidin-1-yl)-2-oxoethyl)-2-(7-methoxy-2-phenylquinolin-4-yloxy)-5,16-dioxo-1,2,3,5,6,7,8,9,10,11, 13a,14,14a,15,16,16a-hexadecahydrocyclopropa [e]pyrrolo[1,2-a][1,4] diazacyclopentadecine-14a-carboxamide] returned an EC50 of less than 1000 nM.

As for `O=C1N[C@]2(C(=O)NS(=O)(=O)C3CC3)C[C@H]2/C=C\CCCCC[C@H](CC(=O)N2CCCC(F)(F)C2)C(=O)N2C[C@H](Oc3cc(-c4ccccn4)nc4c5c(ccc34)CCC5)C[C@@H]12` [Compound 127, (2R,6R,13aS,16aS,Z)-N-(cyclopropylsulfonyl)-6-(2-(3,3-difluoropiperidin-1-yl)-2-oxoethyl)-5,16-dioxo-2-(2-(pyridin-2-yl)-8,9-dihydro-7H-cyclopenta[h]quinolin-4-yloxy)-1,2,3,5,6,7,8,9,10,11, 13a,14,14a,15,16,16a-hexadecahydrocyclopropa [e]pyrrolo[1,2-a][1,4] diazacyclopentadecine-14a-carboxamide], the EC50 was more than 10000 nM.

On to `COc1ccc2c(O[C@@H]3C[C@H]4C(=O)N[C@]5(C(=O)NS(=O)(=O)C6CC6)C[C@H]5/C=C\CCCCC[C@H](CC(=O)O)C(=O)N4C3)cc(-c3ccccn3)nc2c1Cl` [Compound 89, 2-((2R,6R,14aR, 16aS,Z)-2-(8-chloro-7-methoxy-2-(pyridin-2-yl)quinolin-4-yloxy)-14a-(cyclopropylsulfonyl-carbamoyl)-5,16-dioxo-1,2,3,5,6,7,8,9,10,11, 13a,14,14a,15,16,16a-hexadecahydrocyclopropa [e]pyrrolo[1,2-a][1,4]diazacyclopentadecin-6-yl)acetic acid], for which the EC50 is less than 1000 nM.

`CO/N=C1\CN(C(=O)C[C@H]2CCCCC/C=C\[C@@H]3C[C@@]3(C(=O)NS(=O)(=O)C3CC3)NC(=O)[C@@H]3C[C@@H](Oc4cc(-c5ccccc5)nc5cc(OC)ccc45)CN3C2=O)CC1(C)CN` (stereo partly drawn) [Compound 110, (2R,6R,14aR,16aS,Z)-6-(2-((Z)-3-(aminomethyl)-4-(methoxyimino)-3-methylpyrrolidin-1-yl)-2-oxoethyl)-N-(cyclopropylsulfonyl)-2-(7-methoxy-2-phenylquinolin-4-yloxy)-5,16-dioxo-1,2,3,5,6,7,8,9,10,11, 13a,14,14a,15,16,16a-hexadecahydrocyclopropa [e]pyrrolo[1,2-a][1,4] diazacyclopentadecine-14a-carboxamide] had an EC50 of less than 1000 nM.

`COc1ccc2nc(-c3ccccn3)cc(C(=O)N[C@@H]3C[C@H]4C(=O)N[C@]5(C(=O)NS(=O)(=O)C6CC6)C[C@H]5/C=C\CCCCC[C@H](CC(=O)N5CCCCC5)C(=O)N4C3)c2c1` [Compound 96, (2R,6R,14aR,16aS,Z)-N-(cyclopropylsulfonyl)-2-(6-methoxy-2-(pyridin-2-yl)quinoline-4-carboxamido)-5,16-dioxo-6-(2-oxo-2-(piperidin-1-yl)ethyl)-1,2,3,5,6,7,8,9,10,11, 13a,14,14a,15,16,16a-hexadecahydrocyclopropa [e]pyrrolo[1,2-a][1,4] diazacyclopentadecine-14a-carboxamide] yielded an EC50 of less than 1000 nM.

The compound `COc1ccc2c(O[C@@H]3C[C@H]4C(=O)N[C@]5(C(=O)NS(=O)(=O)C6CC6)C[C@H]5/C=C\CCCCC[C@H](CC(=O)N5CCC(C(F)(F)F)CC5)C(=O)N4C3)cc(-c3ccccn3)nc2c1Cl` [Compound 92, (2R,6R,14aR,16aS,Z)-2-(8-chloro-7-methoxy-2-(pyridin-2-yl)quinolin-4-yloxy)-N-(cyclopropylsulfonyl)-5,16-dioxo-6-(2-oxo-2-(4-(trifluoromethyl)piperidin-1-yl)ethyl)-1,2,3,5,6,7,8,9,10,11, 13a,14,14a,15,16,16a-hexadecahydrocyclopropa [e]pyrrolo[1,2-a][1,4] diazacyclopentadecine-14a-carboxamide] returned an EC50 of less than 1000 nM.

Compound `CCOC(=O)[C@]12C[C@@H]1/C=C\CCCCC[C@H](CC(=O)OC(C)(C)C)C(=O)N1C[C@H](Oc3cc(-c4ccccc4)nc4cc(OC)ccc34)C[C@H]1C(=O)N2` [Compound 47, (2R,6R,13aR,14aS, 16aS,Z)-ethyl 6-(2-tert-butoxy-2-oxoethyl)-2-(7-methoxy-2-phenylquinolin-4-yloxy)-5,16-dioxo-1,2,3,5,6,7,8,9,10,11, 13a,14,14a,15,16,16a-hexadecahydrocyclopropa [e]pyrrolo[1,2-a][1,4] diazacyclopentadecine-14a-carboxylate] registered an EC50 of less than 1000 nM.

`COc1ccc2c(O[C@@H]3C[C@H]4C(=O)N[C@]5(C(=O)NS(=O)(=O)C6CC6)C[C@H]5/C=C\CCCCC[C@H](CC(=O)N5CCC(C(F)(F)F)CC5)C(=O)N4C3)cc(-c3nc(C(C)C)cs3)nc2c1C` [Compound 126, (2R,6R,14aR,16aS,Z)-N-(cyclopropylsulfonyl)-2-(2-(4-isopropylthiazol-2-yl)-7-methoxy-8-methylquinolin-4-yloxy)-5,16-dioxo-6-(2-oxo-2-(4-(trifluoromethyl)piperidin-1-yl)ethyl)-1,2,3,5,6,7,8,9,10,11, 13a,14,14a,15,16,16a-hexadecahydrocyclopropa [e]pyrrolo[1,2-a][1,4] diazacyclopentadecine-14a-carboxamide] yielded an EC50 of less than 1000 nM.

The compound `O=C1NC2(C(=O)NS(=O)(=O)C3CC3)CC2/C=C\CCCCC[C@H](CC(=O)N2CCCCC2)C(=O)N2C[C@H](OC(=O)N3Cc4cccc(F)c4C3)C[C@@H]12` (stereo partly drawn) [Compound 50, (2R,6R,16aS,Z)-14a-(cyclopropylsulfonyl-carbamoyl)-5,16-dioxo-6-(2-oxo-2-(piperidin-1-yl)ethyl)-1,2,3,5,6,7,8,9,10,11, 13a,14,14a,15,16,16a-hexadecahydrocyclopropa [e]pyrrolo[1,2-a][1,4] diazacyclopentadecin-2-yl 4-fluoroisoindoline-2-carboxylate] came in with an EC50 of less than 1000 nM.

`COc1ccc2c(O[C@@H]3C[C@H]4C(=O)N[C@]5(C(=O)NS(=O)(=O)C6CC6)C[C@H]5/C=C\CCCCC[C@H](CC(=O)N5CCCC(F)(F)C5)C(=O)N4C3)cc(-c3csc(C(C)C)n3)nc2c1C` [Compound 133, (2R,6R,14aR,16aS,Z)-N-(cyclopropylsulfonyl)-6-(2-(3,3-difluoropiperidin-1-yl)-2-oxoethyl)-2-(2-(2-isopropylthiazol-4-yl)-7-methoxy-8-methylquinolin-4-yloxy)-5,16-dioxo-1,2,3,5,6,7,8,9,10,11, 13a,14,14a,15,16,16a-hexadecahydrocyclopropa [e]pyrrolo[1,2-a][1,4] diazacyclopentadecine-14a-carboxamide] displayed an EC50 of less than 1000 nM.

In turn, `O=C1N[C@]2(C(=O)NS(=O)(=O)C3CC3)C[C@H]2/C=C\CCCCC[C@H](CC(=O)N2CCCCC2)C(=O)N2C[C@H](Oc3cc(-c4ccccn4)nc4c5c(ccc34)OCC5)C[C@@H]12` [Compound 84, (2R,6R,14aR,16aS,Z)-N-(cyclopropylsulfonyl)-5,16-dioxo-6-(2-oxo-2-(piperidin-1-yl)ethyl)-2-(2-(pyridin-2-yl)-8,9-dihydrofuro[2,3-h]quinolin-4-yloxy)-1,2,3,5,6,7,8,9,10,11, 13a,14,14a,15,16,16a-hexadecahydrocyclopropa [e]pyrrolo[1,2-a][1,4] diazacyclopentadecine-14a-carboxamide] displayed an EC50 of more than 10000 nM.

Usually EC50 stands for the concentration giving half of the maximal effect. A lower EC50 goes with greater potency.
